Tests used:
PI3K-δ (RAJI) = assay: p-AKT HTRF assay, PI3K-δ in RAJI cells stimulated with anti-IgM; assay type: cell-based; details: anti-human IgM stimulation
Method: (§1) Cells were incubated at 37° C. in a 5% CO2 atmosphere overnight. […] Medium was then aspirated and 50 μL/well of lysis buffer was added. Plates were shaked for 45 minutes at room temperature and then 16 ul/well of lysate was transferred to 384-well plate. 4 ul/well of premixed antibody was added to the wells. The plate was centrifuged at 1000 rpm at RT for 1 minute and then incubated for 4 hours at 22° C., and Phospho-AKT (ser473) Kit was used for detection.

hERG channels [1] = molecular target: T1, hERG channels (Homo sapiens (Human), UniProt Q12809); assay: hERG assay, manual patch-clamp in HEK-293 cells; assay type: cell-based
T1 sequence (Q12809 whole entry): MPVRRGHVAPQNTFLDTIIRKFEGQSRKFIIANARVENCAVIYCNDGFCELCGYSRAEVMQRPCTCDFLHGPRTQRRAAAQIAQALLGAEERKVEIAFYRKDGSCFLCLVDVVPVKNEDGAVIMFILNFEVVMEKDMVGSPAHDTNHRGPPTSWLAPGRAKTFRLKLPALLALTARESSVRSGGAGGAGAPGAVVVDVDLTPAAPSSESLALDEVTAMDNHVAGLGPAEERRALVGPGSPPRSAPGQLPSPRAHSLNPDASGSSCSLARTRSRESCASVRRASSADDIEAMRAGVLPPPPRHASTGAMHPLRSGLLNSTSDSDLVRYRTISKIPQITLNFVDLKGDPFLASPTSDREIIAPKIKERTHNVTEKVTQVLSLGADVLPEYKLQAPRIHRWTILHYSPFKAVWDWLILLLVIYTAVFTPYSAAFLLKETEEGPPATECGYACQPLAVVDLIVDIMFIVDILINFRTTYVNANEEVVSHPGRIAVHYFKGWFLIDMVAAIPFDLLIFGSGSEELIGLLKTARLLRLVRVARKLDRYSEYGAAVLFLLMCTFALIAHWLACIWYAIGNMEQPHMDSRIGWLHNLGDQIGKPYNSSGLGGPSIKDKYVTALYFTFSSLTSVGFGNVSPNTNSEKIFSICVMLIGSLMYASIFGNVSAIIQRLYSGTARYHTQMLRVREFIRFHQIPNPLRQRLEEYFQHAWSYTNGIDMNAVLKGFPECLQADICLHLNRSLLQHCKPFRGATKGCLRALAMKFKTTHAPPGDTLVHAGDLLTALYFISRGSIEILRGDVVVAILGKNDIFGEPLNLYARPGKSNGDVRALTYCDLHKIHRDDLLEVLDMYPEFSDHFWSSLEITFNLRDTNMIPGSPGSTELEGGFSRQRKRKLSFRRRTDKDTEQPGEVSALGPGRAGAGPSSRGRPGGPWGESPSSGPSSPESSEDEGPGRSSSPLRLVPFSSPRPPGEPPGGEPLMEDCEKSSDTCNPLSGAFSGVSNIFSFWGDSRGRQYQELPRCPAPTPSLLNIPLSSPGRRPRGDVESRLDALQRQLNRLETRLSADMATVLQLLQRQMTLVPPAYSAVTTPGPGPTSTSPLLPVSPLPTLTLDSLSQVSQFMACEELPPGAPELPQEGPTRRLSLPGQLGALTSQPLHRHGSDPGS
Description: Voltage clamp protocol: Computer software was used to set voltage clamp protocols. In whole-cell model, cells were held at −80 mV, first depolarized to −50 mV for 80 ms, and then depolarized to +20 mV for 4800 ms to activate the hERG channels. After that the cells were repolarized to −50 mV for 5000 ms to elicit the characteristic tail currents. Finally the cells were held at −80 mV again. The peak values of tail currents were sampled for analysis.
Manual patch-clamp protocol: The manual patch-clamp system was used to record the hERG currents in human embryonic kidney (HEK-293) cells. The cells were harvested and transferred to the recording charmer on the stage of an inverted microscope and perfused consistently with extracellular solution. The volume of the recording chamber was about 1 mL. The extracellular solution in the chamber was completely exchanged within 1 min at a perfusion rate about 1 mL/min. Patch micropipettes were pulled with micropipette puller. Pipettes were moved to the cells by Micromanipulator and a slight positive pressure was used to clear the surface before seal formation. A high-resistance seal between the surface of the plasma membrane and the tip of pipettes were achieved by a gentle suck. […]
Data was presented as mean±S.E.M. The effects of test article were normalized with the peak currents recorded in vehicle control. […]

PI3K (p110α/p85α) (h) = PI3K (p110α/p85α) (h) (Homo sapiens (Human), UniProt P42336); assay: PI3K (p110α/p85α) (h) non-radioactive HTRF kinase assay; assay type: biochemical
Method: (§2) PI3K (p110α/p85α) (h) is incubated in assay buffer containing 10 μM phosphatidylinositol 4,5-bisphosphate and MgATP (concentration as required). The reaction is initiated by the addition of the ATP solution. After incubation for 30 minutes at room temperature, the reaction is stopped by the addition of stop solution containing EDTA and biotinylated phosphatidylinositol-3,4,5-trisphosphate. Finally, detection buffer is added, which contains europium-labelled anti-GST monoclonal antibody, GST-tagged GRP1 PH domain and streptavidin allophycocyanin. The plate is then read in timeresolved fluorescence mode and the homogenous time-resolved fluorescence (HTRF) signal is determined according to the formula HTRF=10000×(Em665 nm/Em620 nm).
(§3) The kinase assays described herein were performed at Millipore UK Ltd, Dundee Technology Park, Dundee DD2 1SW, UK.

PI3K-α (SKOV3) = assay: p-AKT HTRF assay, PI3K-α in SKOV3 cells; assay type: cell-based; details: Homo sapiens, SK-OV-3
Method: as §1

hERG channels [2] = molecular target: T1, hERG channels; assay: hERG assay, automated QPatch procedure; assay type: cell-based
Description: Only stable cells with recording parameters above threshold were allowed to enter the drug application procedure.

PI3K-γ (RAW264.7) = assay: p-AKT HTRF assay, PI3K-γ in RAW 264.7 cells stimulated with C5a; assay type: cell-based, murine; details: Mus musculus; RAW264.7 cells, C5a stimulation
Method: as §1

WSU-NHL = assay: Cell proliferation assay (CTG), WSU-NHL; assay type: cell-based; details: Homo sapiens, 72 h
Method: • 1. Harvest cells during the logarithmic growth period and count cell number using Count-star. • 2. Adjust cell concentrations to […] with respective culture medium. • 3. Add 90 μL cell suspensions to 96-well plates with the final cell density of 1×10^4 cells/well. (cell concentration will be adjusted according to the data base or density optimization assay.) • 4. The next day, prepare 10× solution (Top working concentration: 10 μM of test article in media with 3.16-fold serial dilutions to achieve 9 dose levels). • 5. Dispense 10 μL drug solution of both test article and reference control in each well (duplicate for each drug concentration) of the plate.

PI3K (p110β/p85α) (h) = PI3K (p110β/p85α) (h) (Homo sapiens (Human), UniProt P42338); assay: PI3K (p110β/p85α) (h) non-radioactive HTRF kinase assay; assay type: biochemical
Chain of PI3K (p110β/p85α) (h) (P42338 whole entry): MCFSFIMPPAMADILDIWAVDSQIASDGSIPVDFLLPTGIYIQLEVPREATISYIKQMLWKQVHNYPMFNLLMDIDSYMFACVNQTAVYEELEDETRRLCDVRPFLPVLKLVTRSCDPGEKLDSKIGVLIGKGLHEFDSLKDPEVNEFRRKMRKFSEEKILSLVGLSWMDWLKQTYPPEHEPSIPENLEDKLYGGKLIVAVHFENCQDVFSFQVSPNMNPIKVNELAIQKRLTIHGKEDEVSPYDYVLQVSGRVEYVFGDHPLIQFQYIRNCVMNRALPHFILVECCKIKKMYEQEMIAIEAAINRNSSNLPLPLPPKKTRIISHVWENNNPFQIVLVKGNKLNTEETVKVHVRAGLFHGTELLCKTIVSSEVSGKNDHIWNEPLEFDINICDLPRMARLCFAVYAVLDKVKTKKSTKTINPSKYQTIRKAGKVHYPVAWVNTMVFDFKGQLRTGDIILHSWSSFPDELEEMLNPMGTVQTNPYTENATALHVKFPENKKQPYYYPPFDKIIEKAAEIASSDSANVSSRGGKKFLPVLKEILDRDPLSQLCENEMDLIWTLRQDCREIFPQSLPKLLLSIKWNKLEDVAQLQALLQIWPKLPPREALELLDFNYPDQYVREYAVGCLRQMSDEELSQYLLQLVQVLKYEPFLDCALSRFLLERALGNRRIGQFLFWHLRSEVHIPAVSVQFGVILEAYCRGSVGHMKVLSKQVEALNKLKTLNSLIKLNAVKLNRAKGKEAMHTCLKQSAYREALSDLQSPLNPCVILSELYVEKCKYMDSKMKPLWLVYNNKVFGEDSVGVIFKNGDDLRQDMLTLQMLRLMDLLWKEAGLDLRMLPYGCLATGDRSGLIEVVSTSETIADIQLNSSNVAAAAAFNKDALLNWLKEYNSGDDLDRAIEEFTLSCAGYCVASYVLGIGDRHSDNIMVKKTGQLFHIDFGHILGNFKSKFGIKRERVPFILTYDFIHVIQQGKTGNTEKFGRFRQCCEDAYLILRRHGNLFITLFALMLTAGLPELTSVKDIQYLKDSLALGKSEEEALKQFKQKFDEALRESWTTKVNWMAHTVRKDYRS
Chain of PI3K (p110β/p85α) (h) (P27986 whole entry partner): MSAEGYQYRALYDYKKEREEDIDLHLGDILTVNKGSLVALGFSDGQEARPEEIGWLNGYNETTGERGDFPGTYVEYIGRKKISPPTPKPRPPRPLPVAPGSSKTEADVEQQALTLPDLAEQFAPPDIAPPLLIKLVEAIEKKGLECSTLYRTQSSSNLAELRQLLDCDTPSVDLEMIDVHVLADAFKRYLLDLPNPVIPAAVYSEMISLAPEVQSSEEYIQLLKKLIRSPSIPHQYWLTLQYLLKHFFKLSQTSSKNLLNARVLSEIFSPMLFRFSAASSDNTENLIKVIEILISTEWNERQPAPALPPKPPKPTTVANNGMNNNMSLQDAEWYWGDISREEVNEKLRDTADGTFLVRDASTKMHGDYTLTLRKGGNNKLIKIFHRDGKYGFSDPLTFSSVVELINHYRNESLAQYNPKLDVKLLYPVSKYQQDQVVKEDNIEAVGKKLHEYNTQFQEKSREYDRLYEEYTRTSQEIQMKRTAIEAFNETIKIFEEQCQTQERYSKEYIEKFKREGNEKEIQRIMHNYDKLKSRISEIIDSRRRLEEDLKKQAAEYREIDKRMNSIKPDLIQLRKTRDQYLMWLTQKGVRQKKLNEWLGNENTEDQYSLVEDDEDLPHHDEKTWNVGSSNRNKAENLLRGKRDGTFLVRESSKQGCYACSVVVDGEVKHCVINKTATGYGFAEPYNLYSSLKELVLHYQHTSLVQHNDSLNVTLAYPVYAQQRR
Method: as §2, with “(p110β/p85α)” for “(p110α/p85α)”, “phosphatidylinositol-4,5-bisphosphate” for “phosphatidylinositol 4,5-bisphosphate”, “MgATP mix.” for “ATP solution.”, “streptavidin-allophycocyanin.” for “streptavidin allophycocyanin.”
as §3

PI3K (p120γ) (h) = PI3K (p120γ) (h) (Homo sapiens (Human), UniProt P48736); assay: PI3K (p120γ) (h) non-radioactive HTRF kinase assay; assay type: biochemical
Chain of PI3K (p120γ) (h) (P48736 whole entry): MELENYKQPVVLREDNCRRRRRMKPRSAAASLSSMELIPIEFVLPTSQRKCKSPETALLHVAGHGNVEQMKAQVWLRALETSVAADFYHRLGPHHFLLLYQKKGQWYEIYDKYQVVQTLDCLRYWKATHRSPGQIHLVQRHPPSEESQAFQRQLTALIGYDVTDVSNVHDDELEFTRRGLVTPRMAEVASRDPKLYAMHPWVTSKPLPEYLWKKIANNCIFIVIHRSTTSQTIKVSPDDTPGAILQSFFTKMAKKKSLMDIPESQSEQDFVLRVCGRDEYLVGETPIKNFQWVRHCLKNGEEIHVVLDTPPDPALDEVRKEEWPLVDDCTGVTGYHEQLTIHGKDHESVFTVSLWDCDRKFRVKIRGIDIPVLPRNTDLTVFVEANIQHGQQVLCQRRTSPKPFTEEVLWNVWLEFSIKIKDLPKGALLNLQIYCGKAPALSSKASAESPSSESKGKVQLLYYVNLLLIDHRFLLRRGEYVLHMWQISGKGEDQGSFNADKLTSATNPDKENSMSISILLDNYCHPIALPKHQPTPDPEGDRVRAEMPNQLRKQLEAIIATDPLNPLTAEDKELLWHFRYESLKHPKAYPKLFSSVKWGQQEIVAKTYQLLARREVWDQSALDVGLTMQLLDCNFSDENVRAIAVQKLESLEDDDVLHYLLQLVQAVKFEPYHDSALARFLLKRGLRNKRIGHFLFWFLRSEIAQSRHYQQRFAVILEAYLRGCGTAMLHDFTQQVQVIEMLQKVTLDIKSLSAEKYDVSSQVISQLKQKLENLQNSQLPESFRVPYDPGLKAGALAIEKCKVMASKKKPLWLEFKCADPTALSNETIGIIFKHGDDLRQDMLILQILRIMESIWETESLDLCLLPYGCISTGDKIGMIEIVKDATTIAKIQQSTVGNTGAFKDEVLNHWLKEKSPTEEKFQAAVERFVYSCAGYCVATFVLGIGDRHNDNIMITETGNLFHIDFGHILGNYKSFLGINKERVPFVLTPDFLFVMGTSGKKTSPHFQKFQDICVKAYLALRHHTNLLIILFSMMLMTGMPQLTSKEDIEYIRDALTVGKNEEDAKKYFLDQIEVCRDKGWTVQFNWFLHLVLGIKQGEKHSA
Method: as §2, with “(p120γ)” for “(p110α/p85α)”, “phosphatidylinositol-4, 5-bisphosphate” for “phosphatidylinositol 4,5-bisphosphate”, “MgATP mix.” for “ATP solution.”, “streptavidin-allophycocyanin.” for “streptavidin allophycocyanin.”
as §3

IC50 (PI3K-δ (RAJI)): 0.65 nM
IC50 (PI3K (p110α/p85α) (h)): 770 nM
IC50 (PI3K-α (SKOV3)): 2600 nM
IC50 (PI3K-γ (RAW264.7)): 128 nM
IC50 (PI3K (p110β/p85α) (h)): 160 nM
IC50 (PI3K (p120γ) (h)): 192 nM
Structure (SMILES): Cc1noc(-c2c(N)ncnc2N[C@@H](C)c2nc3cccc(C#CCO)c3c(=O)n2-c2ccccc2)n1 [Example 34, (S)-2-(1-((6-amino-5-(3-methyl-1,2,4-oxadiazol-5-yl)pyrimidin-4-yl)amino)ethyl)-5-(3-hydroxyprop-1-yn-1-yl)-3-phenylquinazolin-4(3H)-one]
IC50 (hERG channels [1]): 15300 nM
IC50 (hERG channels [2]): > 30000 nM
IC50 (WSU-NHL): 49 nM
